The CheMixHub viscosity set
Values joined by “and” are separate entries in the source; they are usually repeats but may differ in a detail not shown here. Equal values may be shown once.

Assay: xn = mol fraction of the nth substance listed

CCC(=O)O + O
viscosity [mPa·s]
Details | x1 = 0.0263 | x1 = 0.0944 | x1 = 0.196 | x1 = 0.362 | x1 = 0.686
293.15 K, 101.33 kPa | 1.322 | 1.977 | 2.601 | – | –
298.15 K, 101 kPa | 1.443 | 2.821 | 3.483 | 3.351 | 2.816
308.15 K, 101 kPa | 1.08 | 1.945 | 2.418 | 2.393 | 2.082
313.15 K, 101.33 kPa | 0.858 | 1.188 | 1.552 | – | –
318.15 K, 101 kPa | 0.856 | 1.434 | 1.789 | 1.789 | 1.592

CNN + O
293.15 K, 101.3 kPa
Details | viscosity [mPa·s]
x1 = 0.0514 | 1.53
x1 = 0.1003 | 2.35
x1 = 0.1615 | 3.54
x1 = 0.2017 | 4.51
x1 = 0.2563 | 5.58
x1 = 0.303 | 6
x1 = 0.3482 | 5.9
x1 = 0.4048 | 5.5
x1 = 0.4408 | 4.91
x1 = 0.5008 | 4.07
x1 = 0.6034 | 2.98
x1 = 0.6873 | 2.16
x1 = 0.8036 | 1.56
x1 = 0.8917 | 1.22

NN + O
Details | viscosity [mPa·s]
293.15 K, 101.3 kPa, x1 = 0.0526 | 1.11
293.15 K, 101.3 kPa, x1 = 0.1045 | 1.26
293.15 K, 101.3 kPa, x1 = 0.1502 | 1.4
293.15 K, 101.3 kPa, x1 = 0.2047 | 1.57
293.15 K, 101.3 kPa, x1 = 0.3013 | 1.8
293.15 K, 101.3 kPa, x1 = 0.3512 | 1.88
293.15 K, 101.3 kPa, x1 = 0.3967 | 1.96
293.15 K, 101.3 kPa, x1 = 0.4526 | 1.92
293.15 K, 101.3 kPa, x1 = 0.4938 | 1.89
293.15 K, 101.3 kPa, x1 = 0.5997 | 1.71
293.15 K, 101.3 kPa, x1 = 0.7032 | 1.51
293.15 K, 101.3 kPa, x1 = 0.8022 | 1.28
293.15 K, 101.3 kPa, x1 = 0.8961 | 1.11
303 K, 101 kPa, x1 = 0.1 | 1.009
303 K, 101 kPa, x1 = 0.2 | 1.181
303 K, 101 kPa, x1 = 0.3 | 1.357
303 K, 101 kPa, x1 = 0.4 | 1.364
303 K, 101 kPa, x1 = 0.55 | 1.43
303 K, 101 kPa, x1 = 0.6 | 1.41
303 K, 101 kPa, x1 = 0.7 | 1.34
303 K, 101 kPa, x1 = 0.8 | 1.21
303 K, 101 kPa, x1 = 0.9 | 1.02
313 K, 101 kPa, x1 = 0.1 | 0.869
313 K, 101 kPa, x1 = 0.2 | 0.989
313 K, 101 kPa, x1 = 0.3 | 1.138
313 K, 101 kPa, x1 = 0.4 | 1.148
313 K, 101 kPa, x1 = 0.55 | 1.19
313 K, 101 kPa, x1 = 0.6 | 1.17
313 K, 101 kPa, x1 = 0.7 | 1.1
313 K, 101 kPa, x1 = 0.8 | 0.98
313 K, 101 kPa, x1 = 0.9 | 0.83

O=C(O)c1ccccc1O + O
viscosity [mPa·s], 100 kPa
Details | x1 = 7.22e-05 | x1 = 0.000108 | x1 = 0.000143 | x1 = 0.00018 | x1 = 0.0002158 | x1 = 0.0002516
293.15 K | 1.008 | 1.011 | 1.013 | 1.015 | 1.017 | 1.019
298.15 K | 0.896 | 0.899 | 0.901 | 0.902 | 0.904 | 0.906
303.15 K | 0.803 | 0.806 | 0.807 | 0.809 | 0.81 | 0.812
308.15 K | 0.725 | 0.727 | 0.729 | 0.73 | 0.732 | 0.733
313.15 K | 0.659 | 0.661 | 0.662 | 0.664 | 0.665 | 0.666

OC(O)C(Cl)(Cl)Cl + O
293.15 K, 101 kPa
Details | viscosity [mPa·s]
x1 = 0.026 | 1.276
x1 = 0.0441 | 1.631
x1 = 0.06 | 1.841

OC[C@@H](O)[C@@H](O)CO + O
viscosity [mPa·s], 101.3 kPa
Details | x1 = 0.003586 | x1 = 0.007154 | x1 = 0.01069 | x1 = 0.01421 | x1 = 0.0177 | x1 = 0.02631 | x1 = 0.03478 | x1 = 0.0431 | x1 = 0.05128
293.15 K | – | – | – | 1.25 | – | 1.53 | 1.78 | 2.04 | 2.32
303.15 K | 0.84 | 0.89 | 0.95 | 0.99 | 1.07 | 1.18 | 1.36 | 1.54 | 1.73
313.15 K | – | 0.71 | 0.76 | 0.79 | 0.85 | 0.94 | 1.05 | 1.18 | 1.33
323.15 K | 0.57 | 0.6 | 0.64 | 0.66 | 0.71 | 0.77 | 0.87 | 0.95 | 1.06

OC[C@@H](O)[C@@H](O[C@H]1O[C@H](CO)[C@@H](O)[C@H](O)[C@H]1O)[C@H](O)[C@@H](O)CO + O
Details | viscosity
293.15 K, 100 kPa, x1 = 0.06986 | 60.3 mPa·s
293.15 K, 101.3 kPa, x1 = 0.004 | 1.19 mPa·s
293.15 K, 101.3 kPa, x1 = 0.007 | 1.45 mPa·s
293.15 K, 101.3 kPa, x1 = 0.01 | 1.77 mPa·s
293.15 K, 101.3 kPa, x1 = 0.018 | 2.6 mPa·s
298.15 K, 100 kPa, x1 = 0.07553 | 62 mPa·s
303.15 K, 100 kPa, x1 = 0.08206 | 64 mPa·s
303.15 K, 101 kPa, x1 = 0.003592 | 0.9493 mPa·s
303.15 K, 101.3 kPa, x1 = 0.004 | 0.92 mPa·s
303.15 K, 101.3 kPa, x1 = 0.007 | 1.11 mPa·s
303.15 K, 101.3 kPa, x1 = 0.01 | 1.34 mPa·s
303.15 K, 101.3 kPa, x1 = 0.018 | 1.93 mPa·s
308.15 K, 100 kPa, x1 = 0.08946 | 67 mPa·s
313.15 K, 100 kPa, x1 = 0.09729 | 68 mPa·s
313.15 K, 101.3 kPa, x1 = 0.004 | 0.75 mPa·s
313.15 K, 101.3 kPa, x1 = 0.007 | 0.89 mPa·s
313.15 K, 101.3 kPa, x1 = 0.01 | 1.05 mPa·s and 1.27 mPa·s
313.15 K, 101.3 kPa, x1 = 0.018 | 1.49 mPa·s
318.15 K, 100 kPa, x1 = 0.1055 | 76 mPa·s
323.15 K, 100 kPa, x1 = 0.1147 | 79 mPa·s
323.15 K, 101 kPa, x1 = 0.003592 | 0.6401 mPa·s
323.15 K, 101 kPa, x1 = 0.007153 | 0.7457 mPa·s
323.15 K, 101.3 kPa, x1 = 0.004 | 0.62 mPa·s
323.15 K, 101.3 kPa, x1 = 0.007 | 0.73 mPa·s
323.15 K, 101.3 kPa, x1 = 0.01 | 0.86 mPa·s and 1.05 mPa·s
323.15 K, 101.3 kPa, x1 = 0.018 | 1.19 mPa·s
